This is an account of results in US8304447B2, “2-acylaminopropoanol-type glucosylceramide synthase inhibitors” (Genzyme Corporation, priority 2007, dated 2012).

The subject of one assay is GM3. Put plainly: GM3 Elisa assay. The assay is classed as cell-based. The note with it: 48 h, Table 1; B16-FO cells, 2 days incubation; read-out: IC50_uM_Mean. In a few lines: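 Cellular GM3 ELISA: fixed cells probed with monoclonal anti-GM3 (NeuAc), HRP-conjugated anti-IgM and fluorogenic Quantablu substrate, read at Ex 325/Em 420. Cells were B16-FO, treated 2 days after a 6 h attachment on collagen-coated wells.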
Turning to `O=C(NCc1ccc(Br)cc1)N[C@H](CN1CCCC1)[C@H](O)c1ccc2c(c1)OCCO2` [Compound 40, 1-(4-bromobenzyl)-3-((1R,2R)-1-(2,3-dihydrobenzo[β][1,4]dioxin-6-yl)-1-hydroxy-3-(pyrrolidin-1-yl)propan-2-yl)urea], the IC50 was no more than 100 nM.
Same read-out and setting: as for `COc1c(C)cc(C(=O)CCCCC(=O)N[C@H](CN2CCCC2)[C@H](O)c2ccc3c(c2)OCCO3)cc1C` [Compound 140, N-((1R,2R)-1-(2,3-dihydrobenzo[β][1,4]dioxin-6-yl)-1-hydroxy-3-(pyrrolidin-1-yl)propan-2-yl)-6-(4-methoxy-3,5-dimethylphenyl)-6-oxohexanamide], the figure is no more than 100 nM.
Still for that read-out and setting: to `CC(C)(C)c1ccc(C(=O)CCCCCC(=O)N[C@H](CN2CCCC2)[C@@H](O)c2ccc3c(c2)OCCO3)cc1` [Compound 160, 7-(4-tert-butylphenyl)-N-((1R,2R)-1-(2,3-dihydrobenzo[β][1,4]dioxin-6-yl)-1-hydroxy-3-(pyrrolidin-1-yl)propan-2-yl)-7-oxoheptanamide] belongs 100 to 1000 nM; to `Cc1ccc(CNC(=O)N[C@H](CN2CCCC2)[C@H](O)c2ccc3c(c2)OCCO3)cc1` [Compound 42, 1-((1R,2R)-1-(2,3-dihydrobenzo[β][1,4]dioxin-6-yl)-1-hydroxy-3-(pyrrolidin-1-yl)propan-2-yl)-3-(4-methylbenzyl)urea], no more than 100 nM; to `Cc1nc(-c2ccc(NC(=O)N[C@H](CN3CCCC3)[C@H](O)c3ccc4c(c3)OCCO4)cc2)cs1` [Compound 133, 1-((1R,2R)-1-(2,3-dihydrobenzo[β][1,4]dioxin-6-yl)-1-hydroxy-3-(pyrrolidin-1-yl)propan-2-yl)-3-(4-(2-methylthiazol-4-yl)phenyl)urea], 3000 to 10000 nM.
Same read-out and setting: as for `O=C(CCCCCNS(=O)(=O)c1ccc2c(c1)OCCO2)N[C@H](CN1CCCC1)[C@H](O)c1ccc2c(c1)OCCO2` [Compound 102, N-((1R,2R)-1-(2,3-dihydrobenzo[β][1,4]dioxin-6-yl)-1-hydroxy-3-(pyrrolidin-1-yl)propan-2-yl)-6-(2,3-dihydrobenzo[β][1,4]dioxine-6-sulfonamido)hexanamide], the figure is 1000 to 3000 nM; as for `Cc1ccc(OCCC(=O)N[C@H](CN2CCCC2)[C@H](O)c2ccc3c(c2)OCCO3)cc1` [Compound 59, N-((1R,2R)-1-(2,3-dihydrobenzo[β][1,4]dioxin-6-yl)-1-hydroxy-3-(pyrrolidin-1-yl)propan-2-yl)-3-(p-tolyloxy)propanamide], no more than 100 nM.
As for `O=C(Nc1ccc(C(F)(F)F)cc1)N[C@H](CN1CCCC1)[C@H](O)c1ccc2c(c1)OCCO2` [Compound 81, 1-((1R,2R)-1-(2,3-dihydrobenzo[β][1,4]dioxin-6-yl)-1-hydroxy-3-(pyrrolidin-1-yl)propan-2-yl)-3-(4-(trifluoromethyl)phenyl)urea], the IC50 fell in the range of 100 to 1000 nM.

The same assay, now with this note: 48 h, Table 2; B16-FO cells, 2 days incubation; read-out: IC50_uM_Mean.
For `CC(C)Oc1ccc(C(=O)CCCCCC(=O)N[C@H](CN2CCCC2)[C@H](O)c2ccc3c(c2)OCO3)cc1` [Compound 268, N-((1R,2R)-1-(benzo[δ][1,3]dioxol-5-yl)-1-hydroxy-3-(pyrrolidin-1-yl)propan-2-yl)-7-(4-isopropoxyphenyl)-7-oxoheptanamide (2S,3S)-2,3-dihydroxysuccinate], the IC50 is no more than 100 nM.
As for `O=C(CCCc1nc(-c2cccs2)no1)N[C@H](CN1CCCC1)[C@H](OC(=O)CCCc1nc(-c2cccs2)no1)c1ccc2c(c1)OCCO2` [Compound 254], the IC50 lay within 100 to 1000 nM.
Same read-out and setting: as for `Cc1ccc(OCCC(=O)N[C@H](CN2CCCC2)[C@H](OC(=O)CCOc2ccc(C)cc2)c2ccc3c(c2)OCCO3)cc1` [Compound 252], the figure is 100 to 1000 nM; as for `COc1ccc([C@@H](O)[C@@H](CN2CCCC2)NC(=O)Nc2ccc(OC(F)(F)F)cc2)cc1` [Compound 249], 1000 to 3000 nM.

The same assay, now with this note: Table 3 (IC 50 Values); B16-FO cells; read-out: IC50_uM_Mean.
Turning to `CCCCCCCC(=O)N[C@H](CN1CCCC1)[C@@H](O)c1ccc2c(c1)OCCO2` [Compound 673], the IC50 was 3000 to 10000 nM.
The same measure, in the same setting: as for `CCCCCCOc1ccc([C@@H](O)[C@@H](CN2CCCC2)NC(=O)CCCCC(=O)c2ccc(OCCOC)cc2)cc1` [Compound 443], the figure is no more than 100 nM.
Same read-out and setting: to `COc1ccc(OCCC(=O)N[C@H](CN2C3CCC2CC3)[C@H](O)c2ccc3c(c2)OCCO3)cc1` [Compound 523] belongs 100 to 1000 nM.
`COc1ccc(OCCC(=O)N[C@@H](CN2CCCC2)[C@H](O)c2ccc3c(c2)OCCO3)cc1` [Compound 675]: the IC50 was in the range of 3000 to 10000 nM.
On to `COCCOc1ccc(C(=O)CCCCC(=O)N[C@H](CN2CC[C@H](O)C2)[C@H](O)c2ccc(OCCCCF)cc2)cc1` [Compound 455], for which the IC50 was no more than 100 nM.
On the same count and under the same terms, to `COc1ccc(C(=O)CCCCC(=O)N[C@H](CN2CCCC2)[C@H](O)c2ccc(OCCCCC(C)C)cc2)cc1` [Compound 436] belongs no more than 100 nM; to `CCCCCCCC(=O)N[C@H](CN1CC[C@H](c2ccccc2)C1)[C@H](O)c1ccc2c(c1)OCCO2` [Compound 506], 3000 to 10000 nM; to `O=C(CCCCCC(=O)c1ccc(F)cc1)N[C@H](CN1C2CCC1CC2)[C@H](O)c1ccc2c(c1)OCCO2` [Compound 475], no more than 100 nM.
On to `COCCOc1ccc([C@@H](O)[C@@H](CN2CCCC2)N(CCOC)C(=O)CCCCC(=O)c2ccc(OC)cc2)cc1` [Compound 423], for which the IC50 lay in the range of 1000 to 3000 nM.
Same read-out and setting: as for `CCCCCCCC(=O)N[C@H](CN1CCCC1)[C@H](O)c1ccc(OCc2ccccc2)cc1` [Compound 703], the figure is no more than 100 nM; as for `CCCCCCOc1ccc([C@@H](O)[C@@H](CN2CC[C@H](O)C2)NC(=O)CCCCCC(=O)c2ccc(OC)cc2)cc1` [Compound 372], no more than 100 nM; as for `COc1ccc(OCCC(=O)N(Cc2ccc(-c3nc(C)no3)cc2)[C@H](CN2CCCC2)[C@H](O)c2ccc(O)cc2)cc1` [Compound 721], 3000 to 10000 nM.
The same measure, in the same setting: to `COc1ccc(C(=O)CCCCCC(=O)N[C@H](CN2CCCC2)[C@H](O)c2ccc(Cl)cc2)cc1` [Compound 380] belongs no more than 100 nM.
On the same count and under the same terms, to `O=C(CCCOn1nnc2ccccc21)N[C@H](CN1CC[C@@H](F)C1)[C@H](O)c1ccc2c(c1)OCCO2` [Compound 651] belongs 1000 to 3000 nM; to `COc1ccc(C(=O)CCCCCC(=O)N[C@H](CNC2CCCC2)[C@H](O)c2ccc3c(c2)OCCO3)cc1` [Compound 463], 100 to 1000 nM; to `CC(O)(CCCCCC(=O)N[C@H](CN1CCCC1)[C@H](O)c1ccc2c(c1)OCCO2)C1CCCCC1` (some centres unmarked) [Compound 641], no more than 100 nM.
With `CC(=O)CCCCCC(=O)N[C@H](CN1CCCC1)[C@H](O)c1ccc(OC(F)(F)F)cc1` [Compound 665], the IC50 fell in the range of 3000 to 10000 nM.
The same measure, in the same setting: as for `CCCCOc1ccc([C@@H](O)[C@@H](CN2CCCC2)NC(=O)CCCCC(=O)c2ccc(OC)cc2)cc1` [Compound 434], the figure is no more than 100 nM.
Same read-out and setting: to `COc1ccc(C(=O)CCCCC(=O)N[C@H](CN2CC[C@H](O)C2)[C@H](O)c2ccc3c(c2)OCCO3)cc1` [Compound 655] belongs 100 to 1000 nM; to `CCCCOc1ccc([C@@H](O)[C@@H](CN2CC[C@H](O)C2)NC(=O)CCCCC(=O)C2CCCCC2)cc1` [Compound 587], 100 to 1000 nM; to `N#CCCCCCC(=O)N[C@H](CN1CCCC1)[C@H](O)c1ccc2c(c1)OCCO2` [Compound 632], 3000 to 10000 nM.
Turning to `Cc1noc(CCCCC(=O)N[C@H](CN2CC[C@@H](F)C2)[C@H](O)c2ccc3c(c2)OCCO3)n1` [Compound 646], the IC50 fell in the range of 3000 to 10000 nM.
In the case of `COc1ccc(OCCC(=O)N[C@H](CN2CCCC2)[C@H](O)c2ccc(-c3ccccc3)cc2)cc1` [Compound 695], the IC50 is 100 to 1000 nM.
Take `COc1ccc(C(=O)CCCCC(=O)N[C@H](CN2CCCC2)[C@H](O)c2ccc(OCCCC(F)(F)F)cc2)cc1` [Compound 432]: the IC50 was no more than 100 nM.
Still for that read-out and setting: as for `COc1ccc(C(=O)CCCCC(=O)N[C@H](CN2CCCC2)[C@H](O)c2ccc(O)cc2)cc1` [Compound 414], the figure is 100 to 1000 nM.
`O=C(Cc1ccc(OC(F)(F)F)cc1)N[C@H](CN1CCCC1)[C@H](O)c1ccc(OCc2ccccc2)cc1` [Compound 702]: the IC50 was no more than 100 nM.
Turning to `CCCCCCOc1ccc([C@@H](O)[C@@H](CN2CCCC2)NC(=O)CCCC(=O)c2ccc(OCCOC)cc2)cc1` [Compound 442], the IC50 is no more than 100 nM.
On the same count and under the same terms, to `CCCCCCCC(=O)N[C@H](Cn1ccnc1)[C@H](O)c1ccc2c(c1)OCCO2` [Compound 507] belongs 100 to 1000 nM.
On the same count and under the same terms, to `CCCCCCOc1ccc([C@@H](O)[C@@H](CN2CC[C@H](O)C2)NC(=O)CCOc2ccc(OC)cc2)cc1` [Compound 454] belongs no more than 100 nM; to `COc1ccc(OCCC(=O)N[C@H](CN2CCCC2)[C@H](O)c2ccc(Cl)cc2)cc1` [Compound 382], 100 to 1000 nM; to `CCCCOc1ccc([C@@H](O)[C@@H](CN2CC[C@H](O)C2)NC(=O)CCCCCOC2CCC2)cc1` [Compound 593], 100 to 1000 nM.
Same read-out and setting: to `COc1ccc(C(=O)CCCCC(=O)N[C@H](CN2CCCC2)[C@H](O)c2ccc(OCCC(C)C)cc2)cc1` [Compound 438] belongs no more than 100 nM; to `COc1ccc(C(=O)CCCCC(=O)N[C@H](CN2CCCC2)[C@H](O)c2ccc(OCCCCF)cc2)cc1` [Compound 435], no more than 100 nM; to `COc1ccc(C(=O)CCCCCC(=O)N[C@@H](CN(C)C)[C@@H](O)c2ccc3c(c2)OCCO3)cc1` [Compound 469], 100 to 1000 nM.
Consider `O=C(CCCCS(=O)(=O)C1CCCCC1)N[C@H](CN1CC[C@@H](F)C1)[C@H](O)c1ccc(OCc2ccccc2)cc1` [Compound 572], for which the IC50 was 100 to 1000 nM.
For the compound `CCCCCCCC(=O)N[C@H](CN1CCCC(C)C1)[C@H](O)c1ccc2c(c1)OCCO2` (some centres unmarked) [Compound 613], the IC50 fell in the range of 3000 to 10000 nM.
The same measure, in the same setting: to `COc1ccc(OCCC(=O)N[C@H](CN2CCCC2)[C@H](O)c2sccc2C)cc1` [Compound 363] belongs 100 to 1000 nM; to `CCCCCCCCCCCCCCCC(=O)N[C@H](CN(C)Cc1ccco1)[C@H](O)c1ccc2c(c1)OCCO2` [Compound 683], 3000 to 10000 nM.
